Source: ChEMBL document CHEMBL4002613, “Shape-based virtual screening, synthesis and evaluation of novel pyrrolone derivatives as antiviral agents against HCV” (Bioorg Med Chem Lett, 2017)

System: Hepatitis C virus
Assay: Antiviral activity against Hepatitis C virus genotype 1b infected in human HuH5.2 cells after 72 hrs by luciferase reporter gene assay
Assay type: functional, cell-based, Hepacivirus hominis
Conditions: not given

SMILES | EC90 | EC50
CCOC(=O)c1ccc(/C=C2\C=C(c3ccccc3)N(c3ccc(C)cc3Br)C2=O)cc1 (stereo in doubt; form 1) | 149 µM | –
CCOC(=O)c1ccc(/C=C2\C=C(c3ccccc3)N(c3ccc(C)cc3Br)C2=O)cc1 (stereo in doubt; form 2) | 61.7 µM | 20.3 µM

Same assay, conditions: Hepatitis C virus, genotype 1b, Huh-5-2, 72 h

SMILES | EC50 | EC90
N=c1c(S(=O)(=O)c2ccc(Cl)cc2)cc2c(=O)n3ccccc3nc2n1CCN1CCOCC1 | 28 µM | 97.6 µM
Oc1c(CN2CCOCC2)cc(CN2CCOCC2)cc1CN1CCOCC1 | > 255 µM | > 255 µM
CCOC(=O)c1ccc(/C=C2/C=C(c3ccccc3)N(c3ccc(C)cc3C)C2=O)cc1 | 0.8 to 43.1 µM | –
CCOC(=O)c1ccc(/C=C2/C=C(c3ccccc3)N(c3ccccc3)C2=O)cc1 | 27.2 µM | 100 µM
CN1CCN(CC2=C(O)C(=O)N(CCc3ccccc3)C3C=CC=CN23)CC1 (configuration not stated) | 235 µM | > 264 µM
Cc1ccc(N2C(=O)/C(=C\c3ccccc3)C=C2c2ccccc2)c(Br)c1 | 4.1 µM | 12.4 µM
O=C1/C(=C\c2ccc(Br)cc2)C=C(c2ccccc2)N1c1ccccc1 | 4.3 µM | 11.6 µM
O=C1/C(=C\c2ccc(-c3ccccc3)cc2)C=C(c2ccccc2)N1c1ccccc1 | 16.1 µM | 61.7 µM
CN(C)c1ccc(/C=C2\C(=O)N(c3ncc(-c4ccc(Cl)cc4)s3)N=C2c2ccccc2)cc1 | 147 µM | > 206 µM
O=C1/C(=C\c2ccccc2)C=C(c2ccccc2)N1c1ccccc1 | 4.7 µM | 14 µM
COc1ccc(/C=C2/C=C(c3ccccc3)N(c3ccccc3)C2=O)cc1 | 5.9 µM | 21.6 µM
CCOC(=O)c1ccc(/C=C2/C=C(c3ccccc3)N(c3ccc(C)cc3)C2=O)cc1 | 22.5 µM | 81.1 µM
CN1CCN(Cc2c3c(c(CN4CCN(C)CC4)c4c2CCC4)CCC3)CC1 | 7.7 µM | –
CCOC(=O)c1ccc(/C=C2\C=C(c3ccccc3)N(c3ccc(C)cc3Br)C2=O)cc1 (stereo in doubt; form 1) | 38 to 38.3 µM | –

System: Huh-5-2
Assay: (§1) Cytotoxicity against human HuH5.2 cells assessed as anti-metabolic effect after 72 hrs by MTT assay
Assay type: ADME, cell-based
Conditions: huh-5-2, 72 h, 72 h

SMILES | CC50
CCOC(=O)c1ccc(/C=C2\C=C(c3ccccc3)N(c3ccc(C)cc3Br)C2=O)cc1 (stereo in doubt; form 2) | > 205 µM

System: not listed separately
Assay: as §1
Assay type: ADME, cell-based, Huh-5-2
Conditions: HuH5.2 (Huh-5-2) cells

SMILES | CC50 at 72 h
N=c1c(S(=O)(=O)c2ccc(Cl)cc2)cc2c(=O)n3ccccc3nc2n1CCN1CCOCC1 | 151 µM
Oc1c(CN2CCOCC2)cc(CN2CCOCC2)cc1CN1CCOCC1 | > 255 µM
CCOC(=O)c1ccc(/C=C2/C=C(c3ccccc3)N(c3ccc(C)cc3C)C2=O)cc1 | 47 to 90.8 µM
CCOC(=O)c1ccc(/C=C2/C=C(c3ccccc3)N(c3ccccc3)C2=O)cc1 | 112 µM
CN1CCN(CC2=C(O)C(=O)N(CCc3ccccc3)C3C=CC=CN23)CC1 (configuration not stated) | > 264 µM
Cc1ccc(N2C(=O)/C(=C\c3ccccc3)C=C2c2ccccc2)c(Br)c1 | > 240 µM
O=C1/C(=C\c2ccc(Br)cc2)C=C(c2ccccc2)N1c1ccccc1 | 25.7 µM
O=C1/C(=C\c2ccc(-c3ccccc3)cc2)C=C(c2ccccc2)N1c1ccccc1 | 156 µM
CN(C)c1ccc(/C=C2\C(=O)N(c3ncc(-c4ccc(Cl)cc4)s3)N=C2c2ccccc2)cc1 | > 206 µM
O=C1/C(=C\c2ccccc2)C=C(c2ccccc2)N1c1ccccc1 | 30.3 µM
COc1ccc(/C=C2/C=C(c3ccccc3)N(c3ccccc3)C2=O)cc1 | 97.2 µM
CCOC(=O)c1ccc(/C=C2/C=C(c3ccccc3)N(c3ccc(C)cc3)C2=O)cc1 | > 244 µM
CN1CCN(Cc2c3c(c(CN4CCN(C)CC4)c4c2CCC4)CCC3)CC1 | 36.9 µM
CCOC(=O)c1ccc(/C=C2\C=C(c3ccccc3)N(c3ccc(C)cc3Br)C2=O)cc1 (stereo in doubt; form 1) | 204 to 205 µM

System: not listed separately
Assay: Inhibition of Hepatitis C virus genotype 1b NS3 helicase unwinding activity using fluorescent DNA substrate by molecular beacon assay
Set-up: species or system Hepatitis C virus subtype 1b
Conditions: not given

SMILES | IC50
Cc1ccc2nc(-c3ccc4nc(-c5ccc(N)cc5)sc4c3)sc2c1S(=O)(=O)O | 10 µM
CCOC(=O)c1ccc(/C=C2/C=C(c3ccccc3)N(c3ccc(C)cc3C)C2=O)cc1 | > 1000 µM
CCOC(=O)c1ccc(/C=C2/C=C(c3ccccc3)N(c3ccccc3)C2=O)cc1 | > 1000 µM
Cc1ccc(N2C(=O)/C(=C\c3ccccc3)C=C2c2ccccc2)c(Br)c1 | > 1000 µM
O=C1/C(=C\c2ccc(Br)cc2)C=C(c2ccccc2)N1c1ccccc1 | > 1000 µM
O=C1/C(=C\c2ccc(-c3ccccc3)cc2)C=C(c2ccccc2)N1c1ccccc1 | > 1000 µM
O=C1/C(=C\c2ccccc2)C=C(c2ccccc2)N1c1ccccc1 | > 1000 µM
COc1ccc(/C=C2/C=C(c3ccccc3)N(c3ccccc3)C2=O)cc1 | 438 µM
CCOC(=O)c1ccc(/C=C2/C=C(c3ccccc3)N(c3ccc(C)cc3)C2=O)cc1 | > 1000 µM
CCOC(=O)c1ccc(/C=C2\C=C(c3ccccc3)N(c3ccc(C)cc3Br)C2=O)cc1 (stereo in doubt; form 2) | > 1000 µM
O=C(O)C1=CC(=C(c2ccc(O)c(C(=O)O)c2)c2ccc(O)c(C(=O)O)c2)C=CC1=O [AURINTRICARBOXYLIC ACID] | 0.3 µM

System: not listed separately
Assay: Inhibition of Hepatitis C virus genotype 1b Con1 NS3 helicase ATP hydrolysis activity using ATP as substrate in presence of poly U RNA
Set-up: species or system Hepatitis C virus (isolate Con1)
Conditions: not given

SMILES | IC50
Cc1ccc(N2C(=O)/C(=C\c3ccccc3)C=C2c2ccccc2)c(Br)c1 | 620 µM

System: not listed separately
Assay: Selectivity index, ratio of CC50 for human HuH5.2 cells to EC50 for Hepatitis C virus genotype 1b infected in human HuH5.2 cells
Assay type: toxicity, cell-based
Conditions: not given

SMILES | Ratio CC50/EC50
CCOC(=O)c1ccc(/C=C2\C=C(c3ccccc3)N(c3ccc(C)cc3Br)C2=O)cc1 (stereo in doubt; form 2) | > 10

Same assay, conditions: HuH5.2 cells, read-out: Ratio CC50/EC50

SMILES | selectivity ratio
N=c1c(S(=O)(=O)c2ccc(Cl)cc2)cc2c(=O)n3ccccc3nc2n1CCN1CCOCC1 | 5.4
CCOC(=O)c1ccc(/C=C2/C=C(c3ccccc3)N(c3ccc(C)cc3C)C2=O)cc1 | 2.1 to 58.8
CCOC(=O)c1ccc(/C=C2/C=C(c3ccccc3)N(c3ccccc3)C2=O)cc1 | 4
Cc1ccc(N2C(=O)/C(=C\c3ccccc3)C=C2c2ccccc2)c(Br)c1 | > 58
O=C1/C(=C\c2ccc(Br)cc2)C=C(c2ccccc2)N1c1ccccc1 | 6
O=C1/C(=C\c2ccc(-c3ccccc3)cc2)C=C(c2ccccc2)N1c1ccccc1 | 9.7
CN(C)c1ccc(/C=C2\C(=O)N(c3ncc(-c4ccc(Cl)cc4)s3)N=C2c2ccccc2)cc1 | > 1.4
O=C1/C(=C\c2ccccc2)C=C(c2ccccc2)N1c1ccccc1 | 6.4
COc1ccc(/C=C2/C=C(c3ccccc3)N(c3ccccc3)C2=O)cc1 | 18
CCOC(=O)c1ccc(/C=C2/C=C(c3ccccc3)N(c3ccc(C)cc3)C2=O)cc1 | > 11
CN1CCN(Cc2c3c(c(CN4CCN(C)CC4)c4c2CCC4)CCC3)CC1 | 4.8
